3 molecules from US12077503B2, “Substituted cyclic amides and their use as herbicides” (FMC CORPORATION, priority 2015, dated 2024) can be followed below.

Like-named read-outs stand apart in the source and are kept apart here.

What all share (assay): Test A postemergence
What all share (format): in vivo

Assay [1] concerns ragweed (common ragweed, Ambrosia elatior). The conditions noted are these: Ambrosia artemisiifolia, post-emergence, 240 h; for pest or weed control at 125 g/ha: 125 g ai/ha; for pest or weed control at 500 g/ha: 500 g ai/ha. The essentials:
(§1)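 Seeded soil received test chemicals as a preemergence directed spray, and seedlings at one to two leaves, 2–10 cm tall, received them postemergence, in a non-phytotoxic, surfactant-containing solvent mixture. Pots were held in a greenhouse for approximately 10 d, then rated for injury from 0, no effect, to 100, complete control.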

Assay [2] deals with barnyardgrass (Echinochloa crus-galli). The settings on record: Echinochloa crus-galli, post-emergence, 240 h; for pest or weed control at 125 g/ha: 125 g ai/ha; for pest or weed control at 500 g/ha: 500 g ai/ha. In short, it runs like this: as §1
The test system of assay [3] is corn (Zea mays). The conditions noted are these: Zea mays, post-emergence, 240 h; for plant injury at 125 g/ha: read-out: Corn plant response rating (0 to 100 scale); for Corn plant response rating (crop injury, 0 = no effect, 100 = complete kill) at 500 g/ha: visual injury, 0 to 100 scale (0 no effect, 100 complete control), approx. 10 d. The essentials: as §1
The test system of assay [4] is blackgrass (Alopecurus myosuroides). The settings on record: Alopecurus myosuroides, post-emergence, 240 h; for pest or weed control at 125 g/ha: 125 g ai/ha; for pest or weed control at 500 g/ha: 500 g ai/ha. In short, it runs like this: as §1
In assay [5] the test system is ryegrass, Italian (Italian ryegrass, Lolium multiflorum). The settings on record: Lolium multiflorum, post-emergence, 240 h; for pest or weed control at 125 g/ha: 125 g ai/ha; for pest or weed control at 500 g/ha: 500 g ai/ha. The essentials:
as §1

[6] abbreviates: Postemergence, visual injury, 0 to 100 scale (0 no effect, 100 complete control), approx. 10 d, read-out: Plant response rating, Ragweed.
[7] abbreviates: Postemergence, visual injury, 0 to 100 scale (0 no effect, 100 complete control), approx. 10 d, read-out: Plant response rating, Barnyardgrass.
The mark [8] stands for this setting: Postemergence, visual injury, 0 to 100 scale (0 no effect, 100 complete control), approx. 10 d, read-out: Plant response rating, Blackgrass.
The mark [9] stands for this setting: Postemergence, visual injury, 0 to 100 scale (0 no effect, 100 complete control), approx. 10 d, read-out: Plant response rating, Ryegrass, Italian.

As for `Cc1cc(F)cc([C@H]2CNC(=O)[C@@H]2C(=O)Nc2cccc(F)c2F)c1` [Compound 1309], the pest or weed control at 125 g/ha worked out at 0% in assay [1] (Postemergence, visual rating about 10 d after treatment, read-out: Ragweed plant response rating (0 to 100 scale)); 90% in assay [2] (Postemergence, visual rating about 10 d after treatment, read-out: Barnyardgrass plant response rating (0 to 100 scale, 0 no effect, 100 complete control)); 0% in assay [4] (Postemergence, visual rating about 10 d after treatment, read-out: Blackgrass plant response rating (0 to 100 scale)); 0% in assay [5] (Postemergence, visual rating about 10 d after treatment, read-out: Ryegrass, Italian plant response rating (0 to 100 scale)). Moreover, the pest or weed control at 500 g/ha in assay [1] (setting [6]) is 30%; in assay [2] (setting [7]) it was 90%; in assay [4] (setting [8]) it was 60%; in assay [5] (setting [9]), 20%. In addition, the plant injury at 125 g/ha in assay [3] (125 g ai/ha, Postemergence, visual rating about 10 d after treatment) was 0%. The Corn plant response rating (crop injury, 0 = no effect, 100 = complete kill) at 500 g/ha in assay [3] (Postemergence, 500 g ai/ha) is 20%.

For `CN1CC[C@H](c2ccc(C(F)(F)F)cc2)[C@@H](C(=O)Nc2ccccc2C(F)(F)F)C1=O` [Compound 1224], the pest or weed control at 125 g/ha in assay [1] (postemergence, visual injury vs untreated controls after approx. 10 d, 0 = no effect, 100 = complete control, read-out: Ragweed plant response rating (0 to 100 scale)) was 0%; in assay [2] (postemergence, visual injury vs untreated controls after approx. 10 d, 0 = no effect, 100 = complete control, read-out: Barnyardgrass plant response rating (0 to 100 scale)), 70%; in assay [4] (postemergence, visual injury vs untreated controls after approx. 10 d, 0 = no effect, 100 = complete control, read-out: Blackgrass plant response rating (0 to 100 scale)) it was 0%; in assay [5] (postemergence, visual injury vs untreated controls after approx. 10 d, 0 = no effect, 100 = complete control, read-out: Ryegrass, Italian plant response rating (0 to 100 scale)), 0%. The pest or weed control at 500 g/ha turned out to be 0% in assay [1] (postemergence, 0 to 100 scale, 0 is no effect, 100 is complete control, read-out: Ragweed plant response rating); 90% in assay [2] (postemergence, 0 to 100 scale, 0 is no effect, 100 is complete control, read-out: Barnyardgrass plant response rating); 0% in assay [4] (postemergence, 0 to 100 scale, 0 is no effect, 100 is complete control, read-out: Blackgrass plant response rating); 0% in assay [5] (postemergence, 0 to 100 scale, 0 is no effect, 100 is complete control, read-out: Ryegrass, Italian plant response rating). Besides, in assay [3] (125 g ai/ha, postemergence, visual injury vs untreated controls after approx. 10 d, 0 = no effect, 100 = complete control), the plant injury at 125 g/ha is 0%. In addition, the plant injury at 500 g/ha in assay [3] (500 g ai/ha, postemergence, 0 to 100 scale, 0 is no effect, 100 is complete control, read-out: Corn plant response rating) amounted to 0%.

With `CN1CC[C@H](c2cccc(C(F)(F)F)c2)[C@@H](C(=O)Nc2ccc(F)c(F)c2F)C1=O` [Compound 1395], the pest or weed control at 125 g/ha was found to be 0% in assay [1] (Postemergence, visual injury after approx. 10 d, 0 to 100 scale, 0 no effect, 100 complete control, read-out: Plant response rating, Ragweed); 90% in assay [2] (Postemergence, visual injury after approx. 10 d, 0 to 100 scale, 0 no effect, 100 complete control, read-out: Plant response rating, Barnyardgrass); 70% in assay [4] (Postemergence, visual injury after approx. 10 d, 0 to 100 scale, 0 no effect, 100 complete control, read-out: Plant response rating, Blackgrass); 20% in assay [5] (Postemergence, visual injury after approx. 10 d, 0 to 100 scale, 0 no effect, 100 complete control, read-out: Plant response rating, Ryegrass, Italian). Besides, the pest or weed control at 500 g/ha in assay [1] (setting [6]) is 0%; in assay [2] (setting [7]), 90%; in assay [4] (setting [8]), 0%; in assay [5] (setting [9]), 20%. Further, in assay [3] (Postemergence, 125 g ai/ha, visual injury after approx. 10 d, 0 to 100 scale, 0 no effect, 100 complete control), the Corn plant response rating (crop injury, 0 = no effect, 100 = complete kill) at 125 g/ha turned out to be 50%. Also, in assay [3] (Postemergence, 500 g ai/ha), the Corn plant response rating (crop injury, 0 = no effect, 100 = complete kill) at 500 g/ha was determined as 70%.
